System: NCI-H23 complex spheroids with HUVEC/MSC, viability
Assay: Anticancer human tumor NCI-H23 cell line growth inhibition [RAS];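 note: spheroids exposed to compound for 7 days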;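 for viability, T/C: 100% = DMSO vehicle control viability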
Settings: for viability, T/C: stronger effect = lower value; for IC50: curve of first compound
How it was run: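 Multi-cell-type spheroids: tumor cells plus HUVEC endothelial cells and mesenchymal stem cells. RAS-pathway inhibitors were combined with targeted agents, each dosed in half-log steps down from clinical Cmax, or from 10 microM when Cmax was unknown.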

For NC1c2ccccc2OC12CCN(c1cnc3c(N4CCCc5ncccc54)n[nH]c3n1)CC2 (stereo not drawn), which viability, T/C (compound 0.0316 µM) is on record?
The viability, T/C was 72.5% [middle of 4 runs].

And the viability, T/C (compound 0.1 µM)?
Its viability, T/C is 66.6% [middle of 4 runs].

What about the viability, T/C (compound 0.316 µM) of the same compound?
The viability, T/C was 44.9% [middle of 4 runs].

What about the viability, T/C (compound 1 µM) of the same compound?
Its viability, T/C is 42.2% [middle of 4 runs].

What about the viability, T/C (compound 3.16 µM) of the same compound?
Its viability, T/C is 41.3% [middle of 4 runs].

What about the viability, T/C (compound 10 µM) of the same compound?
Its viability, T/C is 44.1% [middle of 4 runs].

For CC(C)n1nc(-c2ccc3oc(N)nc3c2)c2c(N)ncnc21 + C#Cc1c(F)ccc2cc(O)cc(-c3ncc4c(N5CC6CCC(C5)N6)nc(OCC56CCCN5CC(F)C6)nc4c3F)c12, which IC50 (second compound 0.0316 µM) is on record?
Its IC50 is 53.9 nM.

And the IC50 (second compound 0.1 µM)?
The IC50 was 43.2 nM.

What about the IC50 (second compound 0.316 µM) of the same compound?
The IC50 was 22.2 nM.

And the IC50 (second compound 1 µM)?
The IC50 was 14.8 nM.

What about the IC50 (second compound 3.16 µM) of the same compound?
Its IC50 is 2.86 nM.

And the IC50 (second compound 10 µM)?
The IC50 was < 0.316 nM.

What about the viability, T/C (second compound 0.0316 µM, first compound 0.000316 µM) of the same compound?
Its viability, T/C is 105%.

And the viability, T/C (second compound 0.0316 µM, first compound 0.001 µM)?
The viability, T/C was 114%.

And the viability, T/C (second compound 0.0316 µM, first compound 0.00316 µM)?
The viability, T/C was 89.6%.

And the viability, T/C (second compound 0.0316 µM, first compound 0.01 µM)?
The viability, T/C was 73.9%.

What about the viability, T/C (second compound 0.0316 µM, first compound 0.0316 µM) of the same compound?
The viability, T/C was 51.4%.

And the viability, T/C (second compound 0.0316 µM, first compound 0.1 µM)?
The viability, T/C was 47.1%.

What about the viability, T/C (second compound 0.1 µM, first compound 0.000316 µM) of the same compound?
The viability, T/C was 108%.

And the viability, T/C (second compound 0.1 µM, first compound 0.001 µM)?
The viability, T/C was 113%.

And the viability, T/C (second compound 0.1 µM, first compound 0.00316 µM)?
Its viability, T/C is 84.7%.

And the viability, T/C (second compound 0.1 µM, first compound 0.01 µM)?
Its viability, T/C is 71.4%.

And the viability, T/C (second compound 0.1 µM, first compound 0.0316 µM)?
Its viability, T/C is 53.2%.

What about the viability, T/C (second compound 0.1 µM, first compound 0.1 µM) of the same compound?
The viability, T/C was 42.8%.

And the viability, T/C (second compound 0.316 µM, first compound 0.000316 µM)?
The viability, T/C was 104%.

And the viability, T/C (second compound 0.316 µM, first compound 0.001 µM)?
Its viability, T/C is 106%.

And the viability, T/C (second compound 0.316 µM, first compound 0.00316 µM)?
The viability, T/C was 83.7%.

And the viability, T/C (second compound 0.316 µM, first compound 0.01 µM)?
Its viability, T/C is 61.6%.

And the viability, T/C (second compound 0.316 µM, first compound 0.0316 µM)?
The viability, T/C was 46.1%.

And the viability, T/C (second compound 0.316 µM, first compound 0.1 µM)?
The viability, T/C was 39.4%.

And the viability, T/C (second compound 1 µM, first compound 0.000316 µM)?
Its viability, T/C is 83.6%.

What about the viability, T/C (second compound 1 µM, first compound 0.001 µM) of the same compound?
The viability, T/C was 93.1%.

And the viability, T/C (second compound 1 µM, first compound 0.00316 µM)?
The viability, T/C was 72.8%.

And the viability, T/C (second compound 1 µM, first compound 0.01 µM)?
The viability, T/C was 56.4%.

And the viability, T/C (second compound 1 µM, first compound 0.0316 µM)?
The viability, T/C was 39.6%.

And the viability, T/C (second compound 1 µM, first compound 0.1 µM)?
The viability, T/C was 32.3%.

And the viability, T/C (second compound 3.16 µM, first compound 0.000316 µM)?
The viability, T/C was 56.4%.

What about the viability, T/C (second compound 3.16 µM, first compound 0.001 µM) of the same compound?
Its viability, T/C is 60.4%.

And the viability, T/C (second compound 3.16 µM, first compound 0.00316 µM)?
The viability, T/C was 48.4%.

What about the viability, T/C (second compound 3.16 µM, first compound 0.01 µM) of the same compound?
Its viability, T/C is 38.3%.

And the viability, T/C (second compound 3.16 µM, first compound 0.0316 µM)?
Its viability, T/C is 36.8%.

What about the viability, T/C (second compound 3.16 µM, first compound 0.1 µM) of the same compound?
Its viability, T/C is 22.9%.

What about the viability, T/C (second compound 10 µM, first compound 0.000316 µM) of the same compound?
The viability, T/C was 38.8%.

What about the viability, T/C (second compound 10 µM, first compound 0.001 µM) of the same compound?
Its viability, T/C is 38.6%.

And the viability, T/C (second compound 10 µM, first compound 0.00316 µM)?
Its viability, T/C is 28.8%.

And the viability, T/C (second compound 10 µM, first compound 0.01 µM)?
The viability, T/C was 26.9%.

And the viability, T/C (second compound 10 µM, first compound 0.0316 µM)?
The viability, T/C was 24.1%.

And the viability, T/C (second compound 10 µM, first compound 0.1 µM)?
The viability, T/C was 17%.

Reference: PubChem BioAssay AID2060885 (Molecular Pharmacology Branch, DTP, NCI, 2025)
